Test results taken from the kinase profiling compilation of Christmann-Franck et al. (2016).

The compounds below were run against PNCK (human) (UniProt Q6P2M8) (assay: radiometric filter-binding kinase assay, Kinase HotSpot). Conditions: compound 0.5 µM; ATP 10 µM.
`CCc1nc(-c2ccc(OC)cc2)[nH]c1-c1ccncc1` was tested, and the residual activity was 102%. `FC(F)(F)c1ccc(/C=C/c2nc(COc3ccc(CCCCn4ccnn4)cc3)co2)cc1` showed a residual activity of 96.6%. `CCCCc1c(-c2ccc(O)cc2)[nH]c2nccnc12` gave a residual activity of 109%. `Nc1ncnc2c1cnn2-c1ccccc1` showed a residual activity of 97.5%.

These compounds were tested against MAPK1 (human) (UniProt P28482) in the same assay as above. Conditions: compound 0.5 µM; ATP 10 µM.
MAPK1 (human), sequence (P28482 whole entry, looked up): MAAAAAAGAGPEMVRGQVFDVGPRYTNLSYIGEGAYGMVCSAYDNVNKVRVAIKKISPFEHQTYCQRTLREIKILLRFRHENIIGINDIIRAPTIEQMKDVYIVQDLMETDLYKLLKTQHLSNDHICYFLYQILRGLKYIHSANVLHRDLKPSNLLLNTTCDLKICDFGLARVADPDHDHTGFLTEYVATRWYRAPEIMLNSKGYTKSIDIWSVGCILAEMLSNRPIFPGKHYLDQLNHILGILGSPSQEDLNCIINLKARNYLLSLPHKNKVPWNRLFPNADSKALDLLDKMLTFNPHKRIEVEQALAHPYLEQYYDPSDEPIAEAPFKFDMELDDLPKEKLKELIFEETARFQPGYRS
For `CCc1nc(-c2ccc(OC)cc2)[nH]c1-c1ccncc1`, the residual activity was 97.2%. For `FC(F)(F)c1ccc(/C=C/c2nc(COc3ccc(CCCCn4ccnn4)cc3)co2)cc1`, the residual activity was 88.6%. Compound `CCCCc1c(-c2ccc(O)cc2)[nH]c2nccnc12` has a residual activity of 106%. Compound `Nc1ncnc2c1cnn2-c1ccccc1` has a residual activity of 85.4%.

The compounds below were run against DCLK2 (human) (UniProt Q8N568) in the same assay as above. Conditions: compound 0.5 µM; ATP 10 µM.
DCLK2 (human), sequence (Q8N568 whole entry, looked up): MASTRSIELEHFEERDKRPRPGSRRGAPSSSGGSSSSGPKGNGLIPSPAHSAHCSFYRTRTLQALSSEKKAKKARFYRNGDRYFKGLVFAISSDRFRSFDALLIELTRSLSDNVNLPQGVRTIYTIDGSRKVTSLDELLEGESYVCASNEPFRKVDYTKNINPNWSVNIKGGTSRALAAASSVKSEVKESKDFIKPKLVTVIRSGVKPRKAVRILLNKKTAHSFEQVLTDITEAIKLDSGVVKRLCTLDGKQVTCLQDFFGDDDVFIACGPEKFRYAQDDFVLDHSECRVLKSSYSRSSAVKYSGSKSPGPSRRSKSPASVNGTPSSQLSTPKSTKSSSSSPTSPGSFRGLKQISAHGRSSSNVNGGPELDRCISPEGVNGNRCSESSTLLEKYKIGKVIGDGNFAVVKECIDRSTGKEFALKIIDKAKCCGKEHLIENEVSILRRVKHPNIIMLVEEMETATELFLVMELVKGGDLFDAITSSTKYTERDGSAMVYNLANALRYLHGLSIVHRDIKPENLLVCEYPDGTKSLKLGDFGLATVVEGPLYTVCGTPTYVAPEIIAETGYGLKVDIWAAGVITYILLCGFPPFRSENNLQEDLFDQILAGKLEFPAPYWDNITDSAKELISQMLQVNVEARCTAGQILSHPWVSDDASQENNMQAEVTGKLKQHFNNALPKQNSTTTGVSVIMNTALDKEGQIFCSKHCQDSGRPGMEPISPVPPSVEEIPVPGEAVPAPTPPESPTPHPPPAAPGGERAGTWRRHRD
For `CCc1nc(-c2ccc(OC)cc2)[nH]c1-c1ccncc1`, the residual activity was 103%. Compound `FC(F)(F)c1ccc(/C=C/c2nc(COc3ccc(CCCCn4ccnn4)cc3)co2)cc1` has a residual activity of 102%. Compound `CCCCc1c(-c2ccc(O)cc2)[nH]c2nccnc12` has a residual activity of 99.7%. `Nc1ncnc2c1cnn2-c1ccccc1` gave a residual activity of 101%.

The compounds below were run against CDK4 CCND1 (human) (UniProt P24385+P11802) in the same assay as above. Conditions: compound 0.5 µM; ATP 10 µM.
In the case of `CCc1nc(-c2ccc(OC)cc2)[nH]c1-c1ccncc1`, the residual activity is reported as 107%. With `FC(F)(F)c1ccc(/C=C/c2nc(COc3ccc(CCCCn4ccnn4)cc3)co2)cc1` the residual activity was 96.8%. `CCCCc1c(-c2ccc(O)cc2)[nH]c2nccnc12` showed a residual activity of 66.4%. Work on `Nc1ncnc2c1cnn2-c1ccccc1` yielded a residual activity of 103%.

These compounds were tested against RPS6KB2 (human) (UniProt Q9UBS0) in the same assay as above. Conditions: compound 0.5 µM; ATP 10 µM.
`CCc1nc(-c2ccc(OC)cc2)[nH]c1-c1ccncc1` showed a residual activity of 95.6%. With `FC(F)(F)c1ccc(/C=C/c2nc(COc3ccc(CCCCn4ccnn4)cc3)co2)cc1` the residual activity was 103%. In the case of `CCCCc1c(-c2ccc(O)cc2)[nH]c2nccnc12`, the residual activity is reported as 102%. `Nc1ncnc2c1cnn2-c1ccccc1` showed a residual activity of 87.5%.

These compounds were tested against BTK (human) (UniProt Q06187) in the same assay as above. Conditions: compound 0.5 µM; ATP 10 µM.
BTK (human), sequence (Q06187 whole entry, looked up): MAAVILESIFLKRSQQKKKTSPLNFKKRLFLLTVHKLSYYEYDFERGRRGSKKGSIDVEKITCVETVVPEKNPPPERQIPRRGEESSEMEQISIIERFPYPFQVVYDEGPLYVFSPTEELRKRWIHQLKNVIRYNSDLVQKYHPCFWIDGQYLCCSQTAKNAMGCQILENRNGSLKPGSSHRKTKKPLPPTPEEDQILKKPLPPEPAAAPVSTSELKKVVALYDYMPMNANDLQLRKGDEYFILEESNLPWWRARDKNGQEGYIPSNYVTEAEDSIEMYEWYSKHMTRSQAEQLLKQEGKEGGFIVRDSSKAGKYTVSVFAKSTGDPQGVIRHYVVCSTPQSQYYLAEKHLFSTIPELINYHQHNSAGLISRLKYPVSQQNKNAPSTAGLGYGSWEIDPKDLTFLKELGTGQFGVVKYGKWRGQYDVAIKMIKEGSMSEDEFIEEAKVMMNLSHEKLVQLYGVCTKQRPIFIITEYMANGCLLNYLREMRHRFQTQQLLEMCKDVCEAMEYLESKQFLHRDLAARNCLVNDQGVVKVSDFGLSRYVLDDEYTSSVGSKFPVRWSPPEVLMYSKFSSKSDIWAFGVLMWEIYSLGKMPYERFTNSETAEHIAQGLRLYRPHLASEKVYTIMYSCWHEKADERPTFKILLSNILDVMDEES
`CCc1nc(-c2ccc(OC)cc2)[nH]c1-c1ccncc1` was tested, and the residual activity was 106%. For `FC(F)(F)c1ccc(/C=C/c2nc(COc3ccc(CCCCn4ccnn4)cc3)co2)cc1`, the residual activity was 98.2%. Work on `CCCCc1c(-c2ccc(O)cc2)[nH]c2nccnc12` yielded a residual activity of 61.7%. `Nc1ncnc2c1cnn2-c1ccccc1` was tested, and the residual activity was 98.7%.

The compounds below were run against HCK (human) (UniProt P08631) in the same assay as above. Conditions: compound 0.5 µM; ATP 10 µM.
Compound `CCc1nc(-c2ccc(OC)cc2)[nH]c1-c1ccncc1` has a residual activity of 95.1%. `FC(F)(F)c1ccc(/C=C/c2nc(COc3ccc(CCCCn4ccnn4)cc3)co2)cc1` showed a residual activity of 93.9%. Work on `CCCCc1c(-c2ccc(O)cc2)[nH]c2nccnc12` yielded a residual activity of 91.1%. `Nc1ncnc2c1cnn2-c1ccccc1` gave a residual activity of 92.4%.

What follows are compounds tested against ROCK1 (human) (UniProt Q13464) in the same assay as above. Conditions: compound 0.5 µM; ATP 10 µM.
Work on `CCc1nc(-c2ccc(OC)cc2)[nH]c1-c1ccncc1` yielded a residual activity of 105%. Work on `FC(F)(F)c1ccc(/C=C/c2nc(COc3ccc(CCCCn4ccnn4)cc3)co2)cc1` yielded a residual activity of 100%. `CCCCc1c(-c2ccc(O)cc2)[nH]c2nccnc12` gave a residual activity of 98.6%. With `Nc1ncnc2c1cnn2-c1ccccc1` the residual activity was 93.8%.

Each compound was assayed against TGFBR1 (human) (UniProt P36897) in the same assay as above. Conditions: compound 0.5 µM; ATP 10 µM.
Compound `CCc1nc(-c2ccc(OC)cc2)[nH]c1-c1ccncc1` has a residual activity of 98.2%. Work on `FC(F)(F)c1ccc(/C=C/c2nc(COc3ccc(CCCCn4ccnn4)cc3)co2)cc1` yielded a residual activity of 98.8%. Work on `CCCCc1c(-c2ccc(O)cc2)[nH]c2nccnc12` yielded a residual activity of 100%. In the case of `Nc1ncnc2c1cnn2-c1ccccc1`, the residual activity is reported as 99.6%.

The compounds below were run against MAP3K11 (human) (UniProt Q16584) in the same assay as above. Conditions: compound 0.5 µM; ATP 10 µM.
In the case of `CCc1nc(-c2ccc(OC)cc2)[nH]c1-c1ccncc1`, the residual activity is reported as 96.7%. With `FC(F)(F)c1ccc(/C=C/c2nc(COc3ccc(CCCCn4ccnn4)cc3)co2)cc1` the residual activity was 99.1%. `CCCCc1c(-c2ccc(O)cc2)[nH]c2nccnc12` gave a residual activity of 32.5%. With `Nc1ncnc2c1cnn2-c1ccccc1` the residual activity was 96%.

These compounds were tested against MAP4K2 (human) (UniProt Q12851) in the same assay as above. Conditions: compound 0.5 µM; ATP 10 µM.
In the case of `CCc1nc(-c2ccc(OC)cc2)[nH]c1-c1ccncc1`, the residual activity is reported as 106%. `FC(F)(F)c1ccc(/C=C/c2nc(COc3ccc(CCCCn4ccnn4)cc3)co2)cc1` gave a residual activity of 105%. `CCCCc1c(-c2ccc(O)cc2)[nH]c2nccnc12` was tested, and the residual activity was 28.2%. `Nc1ncnc2c1cnn2-c1ccccc1` showed a residual activity of 94.9%.

Each compound was assayed against CAMK1G (human) (UniProt Q96NX5) in the same assay as above. Conditions: compound 0.5 µM; ATP 10 µM.
Compound `CCc1nc(-c2ccc(OC)cc2)[nH]c1-c1ccncc1` has a residual activity of 98%. Work on `FC(F)(F)c1ccc(/C=C/c2nc(COc3ccc(CCCCn4ccnn4)cc3)co2)cc1` yielded a residual activity of 95%. Work on `CCCCc1c(-c2ccc(O)cc2)[nH]c2nccnc12` yielded a residual activity of 104%. `Nc1ncnc2c1cnn2-c1ccccc1` gave a residual activity of 102%.

The compounds below were run against CDK6 CCND3 (human) (UniProt P30281+Q00534) in the same assay as above. Conditions: compound 0.5 µM; ATP 10 µM.
`CCc1nc(-c2ccc(OC)cc2)[nH]c1-c1ccncc1` showed a residual activity of 101%. In the case of `FC(F)(F)c1ccc(/C=C/c2nc(COc3ccc(CCCCn4ccnn4)cc3)co2)cc1`, the residual activity is reported as 90%. In the case of `CCCCc1c(-c2ccc(O)cc2)[nH]c2nccnc12`, the residual activity is reported as 84.6%. `Nc1ncnc2c1cnn2-c1ccccc1` gave a residual activity of 92.2%.

What follows are compounds tested against CLK1 (human) (UniProt P49759) in the same assay as above. Conditions: compound 0.5 µM; ATP 10 µM.
`CCc1nc(-c2ccc(OC)cc2)[nH]c1-c1ccncc1` was tested, and the residual activity was 105%. `FC(F)(F)c1ccc(/C=C/c2nc(COc3ccc(CCCCn4ccnn4)cc3)co2)cc1` gave a residual activity of 101%. Work on `CCCCc1c(-c2ccc(O)cc2)[nH]c2nccnc12` yielded a residual activity of 97.9%. Work on `Nc1ncnc2c1cnn2-c1ccccc1` yielded a residual activity of 91.8%.

The compounds below were run against PIM1 (human) (UniProt P11309) in the same assay as above. Conditions: compound 0.5 µM; ATP 10 µM.
PIM1 (human), sequence (P11309 whole entry, looked up): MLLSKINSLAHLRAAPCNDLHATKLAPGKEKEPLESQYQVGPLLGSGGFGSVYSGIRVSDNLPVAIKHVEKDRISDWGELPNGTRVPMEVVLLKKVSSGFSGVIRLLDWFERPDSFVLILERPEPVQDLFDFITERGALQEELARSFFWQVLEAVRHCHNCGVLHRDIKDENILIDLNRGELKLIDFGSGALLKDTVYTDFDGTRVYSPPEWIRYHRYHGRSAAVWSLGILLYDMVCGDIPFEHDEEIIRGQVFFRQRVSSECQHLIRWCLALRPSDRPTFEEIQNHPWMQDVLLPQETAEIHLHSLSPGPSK
Work on `CCc1nc(-c2ccc(OC)cc2)[nH]c1-c1ccncc1` yielded a residual activity of 104%. Work on `FC(F)(F)c1ccc(/C=C/c2nc(COc3ccc(CCCCn4ccnn4)cc3)co2)cc1` yielded a residual activity of 102%. `CCCCc1c(-c2ccc(O)cc2)[nH]c2nccnc12` was tested, and the residual activity was 83.8%. In the case of `Nc1ncnc2c1cnn2-c1ccccc1`, the residual activity is reported as 99.4%.

The compounds below were run against CAMK2G (human) (UniProt Q13555) in the same assay as above. Conditions: compound 0.5 µM; ATP 10 µM.
CAMK2G (human), sequence (Q13555 whole entry, looked up): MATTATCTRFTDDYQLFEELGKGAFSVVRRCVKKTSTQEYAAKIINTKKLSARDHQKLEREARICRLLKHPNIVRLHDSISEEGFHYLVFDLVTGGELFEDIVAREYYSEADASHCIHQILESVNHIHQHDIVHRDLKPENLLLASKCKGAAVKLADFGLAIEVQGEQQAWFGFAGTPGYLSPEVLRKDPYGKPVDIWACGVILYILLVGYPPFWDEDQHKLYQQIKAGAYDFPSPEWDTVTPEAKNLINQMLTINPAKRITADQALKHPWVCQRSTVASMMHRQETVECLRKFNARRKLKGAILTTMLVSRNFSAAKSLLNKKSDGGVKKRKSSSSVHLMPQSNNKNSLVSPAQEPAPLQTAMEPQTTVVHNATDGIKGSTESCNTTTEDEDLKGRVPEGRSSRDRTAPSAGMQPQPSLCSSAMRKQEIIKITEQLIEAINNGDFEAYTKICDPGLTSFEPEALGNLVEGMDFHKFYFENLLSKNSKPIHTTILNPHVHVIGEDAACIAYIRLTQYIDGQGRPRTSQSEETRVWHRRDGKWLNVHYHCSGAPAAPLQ
Work on `CCc1nc(-c2ccc(OC)cc2)[nH]c1-c1ccncc1` yielded a residual activity of 106%. For `FC(F)(F)c1ccc(/C=C/c2nc(COc3ccc(CCCCn4ccnn4)cc3)co2)cc1`, the residual activity was 99%. In the case of `CCCCc1c(-c2ccc(O)cc2)[nH]c2nccnc12`, the residual activity is reported as 101%. With `Nc1ncnc2c1cnn2-c1ccccc1` the residual activity was 105%.

These compounds were tested against CDK5 CDK5R1 p25 (human) (UniProt Q00535+Q15078) in the same assay as above. Conditions: compound 0.5 µM; ATP 10 µM.
In the case of `CCc1nc(-c2ccc(OC)cc2)[nH]c1-c1ccncc1`, the residual activity is reported as 95.9%. In the case of `Nc1ncnc2c1cnn2-c1ccccc1`, the residual activity is reported as 102%.

What follows are compounds tested against MAP3K9 (human) (UniProt P80192) in the same assay as above. Conditions: compound 0.5 µM; ATP 10 µM.
`CCc1nc(-c2ccc(OC)cc2)[nH]c1-c1ccncc1` gave a residual activity of 88.1%. In the case of `FC(F)(F)c1ccc(/C=C/c2nc(COc3ccc(CCCCn4ccnn4)cc3)co2)cc1`, the residual activity is reported as 105%. With `CCCCc1c(-c2ccc(O)cc2)[nH]c2nccnc12` the residual activity was 37.3%. `Nc1ncnc2c1cnn2-c1ccccc1` gave a residual activity of 106%.

Each compound was assayed against MAPKAPK5 (human) (UniProt Q8IW41) in the same assay as above. Conditions: compound 0.5 µM; ATP 10 µM.
`CCc1nc(-c2ccc(OC)cc2)[nH]c1-c1ccncc1` gave a residual activity of 95.2%. `FC(F)(F)c1ccc(/C=C/c2nc(COc3ccc(CCCCn4ccnn4)cc3)co2)cc1` gave a residual activity of 101%. `CCCCc1c(-c2ccc(O)cc2)[nH]c2nccnc12` was tested, and the residual activity was 93.1%. In the case of `Nc1ncnc2c1cnn2-c1ccccc1`, the residual activity is reported as 87.1%.

Each compound was assayed against VRK1 (human) (UniProt Q99986) in the same assay as above. Conditions: compound 0.5 µM; ATP 10 µM.
VRK1 (human), sequence (Q99986 whole entry, looked up): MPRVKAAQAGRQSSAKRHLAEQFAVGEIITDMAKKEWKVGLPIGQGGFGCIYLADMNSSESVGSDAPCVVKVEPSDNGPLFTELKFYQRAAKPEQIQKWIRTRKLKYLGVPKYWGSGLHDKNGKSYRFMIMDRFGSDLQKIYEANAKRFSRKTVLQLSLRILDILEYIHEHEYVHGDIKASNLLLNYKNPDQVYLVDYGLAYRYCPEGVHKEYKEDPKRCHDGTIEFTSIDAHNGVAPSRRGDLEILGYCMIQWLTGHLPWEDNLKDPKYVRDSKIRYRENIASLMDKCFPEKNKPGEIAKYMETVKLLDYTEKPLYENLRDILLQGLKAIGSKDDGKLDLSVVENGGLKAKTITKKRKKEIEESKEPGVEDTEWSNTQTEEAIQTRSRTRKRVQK
`CCc1nc(-c2ccc(OC)cc2)[nH]c1-c1ccncc1` gave a residual activity of 104%. `FC(F)(F)c1ccc(/C=C/c2nc(COc3ccc(CCCCn4ccnn4)cc3)co2)cc1` showed a residual activity of 99.8%. `CCCCc1c(-c2ccc(O)cc2)[nH]c2nccnc12` showed a residual activity of 87.9%. `Nc1ncnc2c1cnn2-c1ccccc1` gave a residual activity of 84.4%.

What follows are compounds tested against MYLK (human) (UniProt Q15746) in the same assay as above. Conditions: compound 0.5 µM; ATP 10 µM.
MYLK (human), sequence (Q15746 whole entry, looked up): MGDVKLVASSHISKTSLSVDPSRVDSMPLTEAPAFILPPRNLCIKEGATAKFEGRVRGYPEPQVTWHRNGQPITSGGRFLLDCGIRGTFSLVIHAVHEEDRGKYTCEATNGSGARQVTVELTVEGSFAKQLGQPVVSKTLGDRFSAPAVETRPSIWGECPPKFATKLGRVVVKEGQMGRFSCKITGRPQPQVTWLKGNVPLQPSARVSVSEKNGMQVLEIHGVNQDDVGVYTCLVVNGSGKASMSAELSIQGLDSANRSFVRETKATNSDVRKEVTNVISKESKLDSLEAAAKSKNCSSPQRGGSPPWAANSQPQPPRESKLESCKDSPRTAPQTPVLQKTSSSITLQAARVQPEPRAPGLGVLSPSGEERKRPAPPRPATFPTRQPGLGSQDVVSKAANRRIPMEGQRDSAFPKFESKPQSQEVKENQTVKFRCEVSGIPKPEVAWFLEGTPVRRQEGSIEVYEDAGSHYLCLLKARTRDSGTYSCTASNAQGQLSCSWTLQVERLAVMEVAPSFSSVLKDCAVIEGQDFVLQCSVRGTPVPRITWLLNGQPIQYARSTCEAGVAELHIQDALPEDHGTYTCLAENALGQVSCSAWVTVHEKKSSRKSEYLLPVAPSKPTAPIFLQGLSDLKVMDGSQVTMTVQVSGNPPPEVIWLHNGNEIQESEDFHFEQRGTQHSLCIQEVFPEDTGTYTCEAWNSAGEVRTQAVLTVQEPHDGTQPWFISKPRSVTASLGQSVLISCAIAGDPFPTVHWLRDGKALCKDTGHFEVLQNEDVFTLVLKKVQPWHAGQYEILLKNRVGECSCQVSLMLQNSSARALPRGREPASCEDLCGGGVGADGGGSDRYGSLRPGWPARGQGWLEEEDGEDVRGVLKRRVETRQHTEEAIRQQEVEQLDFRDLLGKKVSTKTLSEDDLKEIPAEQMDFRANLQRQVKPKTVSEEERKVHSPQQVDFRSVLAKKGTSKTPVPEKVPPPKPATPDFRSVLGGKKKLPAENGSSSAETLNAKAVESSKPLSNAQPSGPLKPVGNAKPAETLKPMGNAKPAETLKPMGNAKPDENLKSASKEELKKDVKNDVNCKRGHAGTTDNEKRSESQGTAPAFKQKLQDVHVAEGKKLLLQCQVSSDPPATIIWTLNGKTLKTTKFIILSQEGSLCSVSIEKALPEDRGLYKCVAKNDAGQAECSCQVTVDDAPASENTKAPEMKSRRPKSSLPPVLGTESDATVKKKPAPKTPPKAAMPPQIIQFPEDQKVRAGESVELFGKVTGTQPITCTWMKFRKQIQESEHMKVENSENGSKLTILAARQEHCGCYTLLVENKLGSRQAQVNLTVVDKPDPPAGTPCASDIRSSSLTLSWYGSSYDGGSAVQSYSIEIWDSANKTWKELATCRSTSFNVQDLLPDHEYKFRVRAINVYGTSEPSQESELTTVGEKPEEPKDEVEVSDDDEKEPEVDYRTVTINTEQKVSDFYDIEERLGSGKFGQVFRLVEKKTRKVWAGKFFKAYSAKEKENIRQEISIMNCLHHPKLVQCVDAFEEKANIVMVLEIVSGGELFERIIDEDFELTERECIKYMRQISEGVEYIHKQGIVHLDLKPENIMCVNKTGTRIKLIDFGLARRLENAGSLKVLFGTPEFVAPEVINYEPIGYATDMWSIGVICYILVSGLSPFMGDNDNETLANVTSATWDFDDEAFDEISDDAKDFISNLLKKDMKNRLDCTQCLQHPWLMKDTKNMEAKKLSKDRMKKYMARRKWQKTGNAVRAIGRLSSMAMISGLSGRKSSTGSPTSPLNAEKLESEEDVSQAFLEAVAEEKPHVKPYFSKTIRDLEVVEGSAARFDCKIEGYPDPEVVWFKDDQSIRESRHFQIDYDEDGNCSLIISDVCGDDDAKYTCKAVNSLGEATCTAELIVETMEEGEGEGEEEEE
`CCc1nc(-c2ccc(OC)cc2)[nH]c1-c1ccncc1` showed a residual activity of 104%. `FC(F)(F)c1ccc(/C=C/c2nc(COc3ccc(CCCCn4ccnn4)cc3)co2)cc1` gave a residual activity of 94.8%. In the case of `CCCCc1c(-c2ccc(O)cc2)[nH]c2nccnc12`, the residual activity is reported as 101%. With `Nc1ncnc2c1cnn2-c1ccccc1` the residual activity was 99.7%.
